{Ce6} = chlorin e6 photosensitizer conjugate
Assays:
[1] = tested on: GEO human colon cancer cells; test: MTT cell viability assay after oligonucleotide incubation with or without irradiation; type: cell-based; conditions: one day after incubation, no irradiation
Experimental: To test the possibility of inhibiting cell growth by targeting the EGFR mRNA with Ω-sensitizers, mixed backbone oligonucleotides similar to those described in Example 1 were prepared, using methods described in Example 5. The sequences tested were:
GEO human colon cancer cells known to express approximately about 40000 functional EGFRs were purchased from ATCC (Rockville, Md., USA) and grown as described. Culture was performed in the presence of 10% fetal calf serum (FCS) and penicillin/streptomycin at 37° C. and 6% CO2 in a humid environment. For measurement purposes, the cells were subcultured in 48-well dishes (Costar 3548, Integra Biosiences, Cambridge, Mass., USA) to give 10^5 cells/well 72 hours prior to incubation with the oligonucleotides. […]
The cell viability was tested by means of an MTT assay. This technique allows quantification of cell survival after cytotoxic insult by testing the enzymatic acitivity of the mitochondria. […] The optical density of the product was quantified by its absorption at 540 nm using a 96-well ELISA plate reader (iEMS Reader MF, Labsystems, USA). […] The absorption of each residue was determined at 540 nm using the plate reader. The absorbance readings from treated cells was divided by the absorbance readings from the control cells in order to calculate the fraction of surviving cells.

[2] = tested on: target sequence (mam gene sequence); test: Ω-sensitizer-induced photo-oxidation of DHR123 as a function of target concentration; type: biochemical; conditions: 10 J/cm^2
Excerpt: In order to test the possibility of using nano particles as the quenching moiety, oligonucleotides labeled with a photosensitive moiety at the 3′ terminus, where labeled at the 5′ terminus with amino modified gold nanoparticles. The mam gene sequence S′-CGGATGAAACTCTGAGCAATGTCTGCAGTTCTGTGAGCCAAAG-3′ (GeneBank accession No. AF015224) was coupled to the complementary stem sequences CCA AGC and GCT TGG at its 5′ and 3′ termini, respectively. The sequence was constructed using fully automated DNA synthesis as described in Example 1. The 3′ end contained an amino group, while the 5′ end was equipped with a six carbon spacer thiol group protected by a trityl moiety (Glen Research, Sterling, Va.) using standard methods. Following cleavage with 28% ammonium hydroxide, oligonucleotides were washed and purified as described above. The 3′ end photosensitive moiety labeled oligonucleotide was prepared and purified using the NHS ester of pheophorbide a as described in Example 1. Then the trityl protection group was removed by adding 0.15M silver nitrate solution to the labeled oligonucleotide for 1 hour. To this mixture 0.15M dithiothreitol (DTT) was added for 10 minutes. After spinning at 10000 rpm the supernatant was transferred to another tube. 400 pmol of this oligonucleotide were then suspended in 180 μl of water and immediately reacted with 6 nmol of monomaleimido gold particles (Ø=1.4 nm) (Nanoprobes) in aqueous 20 mM NaH2PO4, 150 mM NaCl, 1 mM ethylenediamine […] (EDTA) Buffer, pH 6.4, containing 10% isopropanol at 4° C. for 24 hours.
To the solution containing the Ω-sensitizer, 5′ (gold particle)-S—(CH2)6— CCAAGCCGGATGAAACTCTGAGCAATGTCTGCAGTTCTGTGAGCCAAAGCTTGG-(pheophorbide a)-3′, target and one base pair mismatch oligonucleotides were added at different concentrations. After adding appropriate quantities of DHR123 (see Example 1), the solutions were irradiated at 405 nm with electromagnetic radiation doses of 10 J/cm^2 and the fluorescence of rhodamine 123 was measured as described above as a function of the target concentration.

sense oligonucleotides = test: Photo-oxidation of DHR123 to RH123 by Ω-sensitizers with sense and mismatch oligonucleotides; type: biochemical; conditions: irradiation 405±5 nm; for photochemically induced oxidation of DHR123: in the presence of the sense oligonucleotide; for reduction of oxidation capacity (photo-oxidation of DHR123), one base pair mismatch versus sense oligonucleotide / reduction of oxidation capacity (photo-oxidation of DHR123), two base pair mismatches versus sense oligonucleotide: RH123 fluorescence at 529 nm; for reduction of oxidation capacity (photo-oxidation of DHR123), two base pair mismatches versus sense oligonucleotide: two base pair mismatch sense oligonucleotide
Experimental: (§1) The selective photosensitizing action of the different Ω-sensitizers described in Example 1 was tested in vitro against sense oligonucleotides, and sense oligonucleotides having one and two base mismatches, respectively. For this purpose oligonucleotides with sequences 5′-CAAAGGGAGGAAACCTAGCA-3′ (sense), 5′-CAAAGGGAGGTAACCTAGCA-3′ (sense 1 bp mismatch), and 5′-CAAAGGGAAGTAACCTAGCA-3′ (sense 2 bp mismatch) were synthesized using standard automated phosphoramidite chemistry. Oligonucleotides were dissolved in 2 ml of a solution containing 10 mM Tris-HCl and 2 mM MgCl2 to give a final concentration of 0.8 μM in a quartz cuvette. To this solution 1 ml Dihydrorhodamine 123 (DHR123) (Molecular Probes, Eugene, USA) (40 μM) dissolved in 10 mM Tris-HCl was added. DHR123 is a non-fluorescent molecule that in the presence of oxygenating species undergoes oxygenation to give the fluorescent dye rhodamine 123 having an absorption maximum at 507 nm and a fluorescence maximum at 529 nm. 1 ml of Ω-sensitizer (800 nM) containing solution was added and the final solution was stored in the dark at 37° C. for 20 minutes. Then the solution was irradiated at 405±5 nm with electromagnetic radiation from a filtered Hg-Arc lamp. The RH123 fluorescence intensity at 529 nm was measured every 60 seconds using a Perkin Elmer spectrofluorometer (Model LS50B, Perkin Elmer, Rotkreuz, CH)

sense oligonucleotide = test: Intrinsic fluorescence emission of the Ω-sensitizer after excitation at 405 nm with sense and mismatch oligonucleotides; type: binding; conditions: excitation 405 nm; two base pair mismatch oligonucleotide versus sense oligonucleotide
Experimental: as §1, with “1 ml of Ω-sensitizer (800 nM) containing solution was added and the final solution was stored in the dark at 37° C. for 20 minutes. Then the solution was irradiated at 405±5 nm with electromagnetic radiation from a filtered Hg-Arc lamp.” left out
Furthermore, the intrinsic fluorescence of the pheophorbide a labeled Ω-sensitizer was used to further underline the selectivity of these new photochemotherapeutic agents.

| Substance | photochemically induced oxidation of DHR123 (sense oligonucleotides) | reduction of oxidation capacity (photo-oxidation of DHR123), one base pair mismatch versus sense oligonucleotide (sense oligonucleotides) | reduction of oxidation capacity (photo-oxidation of DHR123), two base pair mismatches versus sense oligonucleotide (sense oligonucleotides) [fold] | other results |
| --- | --- | --- | --- | --- |
| 5′ (chlorin e6) -GC*G A*CT GA*C TGC CA*A C*TA TG*A* ACA T*C*G C-(chlorin e6)3′ [b)] | – | – | – | cell viability (mitochondrial activity, MTT) in the dark [1]: only slightly reduced |
| 5′ (gold particle)-S—(CH2)6— CCAAGCCGGATGAAACTCTGAGCAATGTCTGCAGTTCTGTGAGCCAAAGCTTGG-(pheophorbide a)-3′ (CCAAGCCGGATGAAACTCTGAGCAATGTCTGCAGTTCTGTGAGCCAAAGCTTGG; hairpin, 5' gold particle via hexyl thiol, 3' pheophorbide a, partial phosphorothioate, further chemistry not given here) | – | – | – | concentrations of the one base pair mismatched oligonucleotide at which photodynamic action can be observed ([2]; 405 nm): only very high concentrations; concentration of the target sequence at which the RH123 fluorescence intensity reaches its maximum ([2]; irradiated at 405 nm, RH123 fluorescence at 529 nm): about 0.5 μM; RH123 fluorescence with oligonucleotide not complementary to the TCS ([2]; one base pair mismatched oligonucleotide at about 0.5 μM, 405 nm): no fluorescence is detectable |
| 5′-(chlorin)-GCGATGCTAGGTTTCCTCCCTTTGTCGC-(chlorin)-3′ (GCGATGCTAGGTTTCCTCCCTTTGTCGC; DNA, linkages osossooooossooooooooossssso (s phosphorothioate, o phosphodiester), 5' {Ce6}, 3' {Ce6}, methylation of C not given here) [chlorin e6 labeled Ω-sensitizer] | most efficient | about 5 fold | ~20 | – |
| 5′-(pheo a)-GCGATGCTAGGTTTCCTCCCTTTGTCGC-(pheo a)-3′ (GCGATGCTAGGTTTCCTCCCTTTGTCGC; pheophorbide a at both ends, partial phosphorothioate, pattern not given here) [pheophorbide a labeled Ω-sensitizer] | most efficient | about 5 fold | ~20 | RH123 fluorescence intensities achieved, compared with the chlorin e6 labeled Ω-sensitizer (sense oligonucleotides; fluorescence at 529 nm): higher fluorescence intensities; fluorescence of the photosensitiser pheophorbide a (intrinsic fluorescence of the Ω-sensitizer) (sense oligonucleotide): significant reduction |
